The values below come from patent US12312627B2, “Microorganisms and methods for production of 4-hydroxybutyrate, 1,4-butanediol and related compounds” (priority 2013, dated 2025).

One series deals with cytochrome bo oxidase (Escherichia coli, UniProt P0ABI8). The following applies: read-out: Km for O2; cited from earlier work.
The subject of a further series is cytochrome bd oxidase. Particulars: cited from earlier work.
The test system of series [1] is aminotransferase from Leishmania mexicana. The following applies: enzyme expressed in E. coli; cited from earlier work.
For series [2], the target named is T1, endogenous alcohol dehydrogenase backflux activity (Escherichia coli, UniProt P27250).
T1 sequence (P27250 1-339): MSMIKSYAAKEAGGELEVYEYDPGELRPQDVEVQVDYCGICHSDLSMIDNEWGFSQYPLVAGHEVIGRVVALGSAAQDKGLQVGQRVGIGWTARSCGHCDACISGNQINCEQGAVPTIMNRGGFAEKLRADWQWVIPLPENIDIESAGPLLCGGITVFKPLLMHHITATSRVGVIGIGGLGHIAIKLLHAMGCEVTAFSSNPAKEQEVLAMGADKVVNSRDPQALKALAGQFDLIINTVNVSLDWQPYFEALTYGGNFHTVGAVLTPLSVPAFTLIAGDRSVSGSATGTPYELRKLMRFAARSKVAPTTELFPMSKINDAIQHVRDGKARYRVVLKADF
Particulars: purified streptavidin-tagged protein, in the presence of NADP+.
Source text: The sample was purified while following the backflux activity.
The yjgB gene was cloned with a streptavidin tag, expressed and purified in order to characterize its properties.

Chain of cytochrome bo oxidase (P0ABI8 whole entry): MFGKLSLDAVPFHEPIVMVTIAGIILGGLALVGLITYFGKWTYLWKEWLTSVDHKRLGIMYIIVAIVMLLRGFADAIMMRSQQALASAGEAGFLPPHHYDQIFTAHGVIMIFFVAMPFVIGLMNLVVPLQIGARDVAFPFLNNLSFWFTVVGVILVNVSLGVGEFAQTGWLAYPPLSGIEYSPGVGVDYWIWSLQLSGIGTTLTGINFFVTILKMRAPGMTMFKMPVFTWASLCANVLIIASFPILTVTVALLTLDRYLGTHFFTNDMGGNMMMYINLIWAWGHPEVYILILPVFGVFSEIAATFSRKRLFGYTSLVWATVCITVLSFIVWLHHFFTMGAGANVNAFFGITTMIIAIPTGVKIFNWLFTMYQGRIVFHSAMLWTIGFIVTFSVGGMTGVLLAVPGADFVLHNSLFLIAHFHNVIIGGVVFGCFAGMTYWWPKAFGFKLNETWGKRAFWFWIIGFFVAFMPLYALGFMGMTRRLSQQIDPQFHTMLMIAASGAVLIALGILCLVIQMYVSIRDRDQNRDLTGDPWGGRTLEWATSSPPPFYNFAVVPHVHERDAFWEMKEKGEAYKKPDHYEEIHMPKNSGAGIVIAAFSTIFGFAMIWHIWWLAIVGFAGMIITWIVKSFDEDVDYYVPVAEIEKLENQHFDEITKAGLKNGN
Chain of cytochrome bo oxidase (P0ABJ1 25-315 partner): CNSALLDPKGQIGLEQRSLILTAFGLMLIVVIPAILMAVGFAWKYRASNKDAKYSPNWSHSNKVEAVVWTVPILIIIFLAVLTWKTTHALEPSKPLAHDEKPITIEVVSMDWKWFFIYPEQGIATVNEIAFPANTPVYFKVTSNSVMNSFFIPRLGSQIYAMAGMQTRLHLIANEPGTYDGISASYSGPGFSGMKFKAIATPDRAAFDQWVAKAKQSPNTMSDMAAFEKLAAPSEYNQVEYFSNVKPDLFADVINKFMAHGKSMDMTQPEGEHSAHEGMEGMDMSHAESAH
Chain of cytochrome bo oxidase (P0ABJ3 whole entry partner): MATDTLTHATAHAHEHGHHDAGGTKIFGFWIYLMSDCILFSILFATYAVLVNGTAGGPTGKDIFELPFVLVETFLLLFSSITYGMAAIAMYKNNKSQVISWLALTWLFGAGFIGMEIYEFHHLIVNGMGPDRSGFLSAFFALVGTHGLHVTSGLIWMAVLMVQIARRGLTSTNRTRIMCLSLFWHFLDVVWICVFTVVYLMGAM
Chain of cytochrome bo oxidase (P0ABJ6 whole entry partner): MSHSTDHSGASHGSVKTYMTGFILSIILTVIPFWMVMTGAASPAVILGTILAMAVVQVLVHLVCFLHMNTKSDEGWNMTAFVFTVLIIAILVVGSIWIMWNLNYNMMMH

As to `O=O` [Sample O2], the Michaelis constant (Km) at cytochrome bo oxidase was ~1 µM; in the series on cytochrome bd oxidase (read-out: Km for O2) it was 0.01 µM.
On to `CC(C)C[C@H](N)C(=O)O` [leucine], for which the “activity (considered 100% on tyrosine)” value in series [1] was 25%.
Consider `CSCC[C@H](N)C(=O)O` [methionine], for which, in series [1], the “activity (considered 100% on tyrosine)” value is recorded as 25%.
Turning to `N[C@@H](Cc1ccccc1)C(=O)O` [phenylalanine], the “activity (considered 100% on tyrosine)” value in series [1] is reported as 90%.
Consider `N[C@@H](Cc1c[nH]c2ccccc12)C(=O)O` [tryptophan], for which the “activity (considered 100% on tyrosine)” value in series [1] is 85%.
Take `N[C@@H](Cc1ccc(O)cc1)C(=O)O` [tyrosine]: in series [1], the “activity (considered 100% on tyrosine)” value is 100%.
In the case of Cytochrome bd-II, in the series on cytochrome bd oxidase (from Bekker et al. 2009), the “In vivo sp act (mol O2/mol cytochrome bd/s)” value is 70 ± 12 mol O2/mol cytochrome bd/s and the “Vmax (mol O/mol cytochrome bd/s)” value was 818 ± 75 mol O/mol cytochrome bd/s.

B1: yjgB: E. coli alcohol dehydrogenase yjgB (GenBank NP_418690.4) identified as carrying backflux activity (protein, UniProt P27250 1-339, looked up)
Aldehyde reductase Ahr: MSMIKSYAAKEAGGELEVYEYDPGELRPQDVEVQVDYCGICHSDLSMIDNEWGFSQYPLVAGHEVIGRVVALGSAAQDKGLQVGQRVGIGWTARSCGHCDACISGNQINCEQGAVPTIMNRGGFAEKLRADWQWVIPLPENIDIESAGPLLCGGITVFKPLLMHHITATSRVGVIGIGGLGHIAIKLLHAMGCEVTAFSSNPAKEQEVLAMGADKVVNSRDPQALKALAGQFDLIINTVNVSLDWQPYFEALTYGGNFHTVGAVLTPLSVPAFTLIAGDRSVSGSATGTPYELRKLMRFAARSKVAPTTELFPMSKINDAIQHVRDGKARYRVVLKADF
With B1, the “activity with BDO as a substrate” value in series [2] was “robust activity”.

Broadly, the Km is the substrate concentration at which the rate is half of its maximum.
